Results reported in patent US20140017230A1, “CHRONIC LYMPHOCYTIC LEUKEMIA (CLL) BIOMARKERS” (HOFFMANN-LAROCHE INC., priority 2011, published 2014).

Legend:
[1] = system: CLL patients; assay: Phase III trial in CLL patients, R-FC vs FC: progression free survival (PFS) by pretreatment biomarker expression in CD19+ PBMC; assay type: in vivo, human; conditions: for Median PFS PTK2 Exon 1.0 ST / Median PFS PTK2 U133 plus2.0 / Median PFS PTK2 qRT-PCR / Median PFS miRNA151 DISCOVARRAY / Median PFS miRNA151 qRT-PCR / Median PFS miRNA409 DISCOVARRAY / Median PFS miRNA409 qRT-PCR: CLL patients; for Median PFS PTK2 Exon 1.0 ST / Median PFS PTK2 U133 plus2.0 / Median PFS PTK2 qRT-PCR: PTK2 expression in CD19+ cells
Procedure: Pretreatment patient samples were analyzed from an international, multicenter, open-label, phase III trial, randomizing CLL patients to receive R-FC (rituximab plus fludarabine/cyclophosphamide) or FC (fludarabine/cyclophosphamide) alone. […] The study protocol was approved by institutional review boards at participating centers and all patients gave written informed consent. Details on trial design and eligibility criteria have been described in Robak et al. J. Clin. Oncol. 28(10):1756-1765 (2010). Patients were selected on the availability of RNA and the written informed consent to participate in molecular genetic analyses of peripheral blood samples.
Pretreatment Peripheral Blood Mononuclear Cell (PBMC) samples positively selected for CD19+ cells were available from n=301 patients. CD19 separation was performed by magnetic bead separation according to the manufacturer's protocol (Miltenyi, Germany).
Pretreatment clinical features i.e demographics, prognostic markers (cytogenetic aberrations like del(17p), del(11q), ZAP70 and CD38 expression, IgVH status), progression free survival (PFS) were compared using the Fisher's exact, Mann-Whitney, or log-rank tests. A p-value of <0.05 was considered statistically significant.
Two approaches using a Cox regression model were used to identify genes and miRNA associated with survival. First approach considered the models below.
For the different tables and graphs appearing in this document where median PFS was computed, mRNA and miRNA signal intensities were dichotomized using the median value as a cutoff.

[2] = system: 3′UTR luciferase reporter constructs in HeLa cells; assay: 3′UTR luciferase reporter assay with miRNA151 3p mimic vs scrambled mimic; assay type: cell-based; conditions: 10 nM mimic, 24 hours post-transfection, normalized to scrambled control
Procedure: Predicted targets were downloaded from TARGETSCAN 5.1™ (http://www.targetscan.org/) and expression was extracted from the mRNA expression profiling data, irrespective of predicted site conservation. Anti-correlations with miRNAs were determined by comparing miRNA array and mRNA array data and computing Pearson correlation coefficients. […] Subsequently, 3′UTRs that met this threshold were cloned upstream into 3′UTR luciferase reporter constructs (Switchgear Genomics) and 100 ng of each construct was transfected into HeLa cells (ATCC) with 25 ng pRL-CMV, 10 nM miRNA151 3p mimic (Dharmacon) or scrambled mimic in 96-well plates. Luciferase activity was determined 24 hours post-transfection and all data were normalized to renilla luciferase transfection control and scrambled control mimic. Three biological replicates were performed. Statistical significance for a difference between scrambled control and miRNA151 3p mimic was determined by a 2-sided Student's t-test.

[3] = miRNA signal < median miRNA signal
[4] = miRNA signal > median miRNA signal

fludarabine/cyclophosphamide [FC]
HR for PFS, miRNA151 < median vs > median within treatment arm ([1]; Array): 0.99
HR for PFS, miRNA409 < median vs > median within treatment arm ([1]; Array): 1.12
Median PFS PTK2 Exon 1.0 ST ([1]; gene < median): 17.9 months
Median PFS PTK2 U133 plus2.0 ([1]; gene < median): 17.9 months
Median PFS PTK2 qRT-PCR ([1]; gene < median): 17.9 months
Median PFS PTK2 Exon 1.0 ST ([1]; gene > median): 21.5 months
Median PFS PTK2 U133 plus2.0 ([1]; gene > median): 21.5 months
Median PFS PTK2 qRT-PCR ([1]; gene > median): 21.5 months
Median PFS miRNA151 DISCOVARRAY [1, 3]: 18 months
Median PFS miRNA151 qRT-PCR [1, 3]: 17.9 months
Median PFS miRNA409 DISCOVARRAY [1, 3]: 21.6 months
Median PFS miRNA409 qRT-PCR [1, 3]: 18.3 months
Median PFS miRNA151 DISCOVARRAY [1, 4]: 18.5 months
Median PFS miRNA151 qRT-PCR [1, 4]: 20.7 months
Median PFS miRNA409 DISCOVARRAY [1, 4]: 18 months
Median PFS miRNA409 qRT-PCR [1, 4]: 18.3 months
HR for PFS, PTK2 < median vs > median within treatment arm ([1]; Exon 1.0 ST, CD19+ cells): 0.86
HR for PFS, miRNA151 < median vs > median within treatment arm ([1]; RT-PCR): 0.84
HR for PFS, miRNA409 < median vs > median within treatment arm ([1]; RT-PCR): 1.03
HR for PFS, PTK2 < median vs > median within treatment arm ([1]; U133 + 2, CD19+ cells): 0.86
HR for PFS, PTK2 < median vs > median within treatment arm ([1]; qRT-PCR, CD19+ cells): 0.77

miRNA151 3p: miRNA151 3p mimic (Dharmacon); miRNA comprising the sequence CUAGACUGAAGCUCCUUGAGG (SEQ ID NO: 1) (synthetic mimic duplex, passenger strand not listed, further chemistry not given here; listed as Homo sapiens)
3′UTRs showing a statistically significant reduction in luciferase activity (5 out of the 18) [2]: 28%
